In patent US10117871B2, “3-hydroxypyrimidine-2,4-dione-5-carboxamides as potent inhibitors of HIV” (Regents of the University of Minnesota, priority 2015, dated 2018):
Where two headings read alike, the source gives them in different places.

Tests used:
HIV-1IIIB = experiment: HIV-1 cytoprotection (CPE reduction) antiviral assay; format: cell-based; settings: for inhibition at 10 µM: read-out: CPE reduction %
Protocol: (§1) The antiviral activity of newly synthesized analogues of chemotype 7 was evaluated against HIV-1IIIB in CEM-SS cells using an assay based on viral cytopathic effect (CPE). In this assay, the reduction of CPE was used to indicate the antiviral activity of a compound.
Briefly virus and cells were mixed in the presence of test compound and incubated for 6 days. […] Each assay plate contained cell control wells (cells only), virus control wells (cells plus virus), compound toxicity control wells (cells plus compound only), compound colorimetric control wells (compound only) as well as experimental wells (compound plus cells plus virus). Cytoprotection and compound cytotoxicity were assessed by MTS (CellTiter® 96 Reagent, Promega, Madison Wis.) and the EC50 (concentration inhibiting virus replication by 50%), CC50 (concentration resulting in 50% cell death) and a calculated TI (therapeutic index CC50/EC50) were provided. Each assay included AZT as a positive control.

CEM-SS cells = experiment: Compound cytotoxicity (MTS) in the HIV cytoprotection assay; format: cell-based; settings: for Cell viability %: 10 μM, CEM-SS cells; for CC50: Concentration resulting in 50% cell death
Protocol: as §1
(§2) Briefly virus and cells were mixed in the presence of test compound and incubated for 6 days. […] Each assay plate contained cell control wells (cells only), virus control wells (cells plus virus), compound toxicity control wells (cells plus compound only), compound colorimetric control wells (compound only) as well as experimental wells (compound plus cells plus virus). […] Each assay included AZT as a positive control.

HIV-1 integrase = target: T1, HIV-1 integrase (Human immunodeficiency virus type 1 group M subtype B, UniProt P04585); experiment: HIV-1 integrase strand transfer (INST) assay; format: biochemical
T1 construct: HIV integrase was expressed and purified as previously reported; made in house; host or cells: Escherichia coli
Protocol: HIV integrase was expressed and purified as previously reported.^43 Inhibition assays were performed using a modified protocol of a reported method.^43 Briefly, 2.1 μL of compound suspended in DMSO was placed in duplicate into a Black 96 well non-binding plate (coming 3991). Compounds were plated in duplicate to a final concentration of 0.13-100 μM. To each well of the plate 186.9 μL of reaction mixture without DNA substrate was added (10 mM HEPES pH 7.5, 10% glycerol w/v, 10 mM MnCl2, 1 mM DTT, 1 μM integrase). The enzyme was incubated with inhibitor for 10 min at 25° C. after which the reaction was initiated by the addition of 21 μL of 500 nM oligo (5′ biotin […] annealed with […] 3′ Cy5). Reactions were incubated at 37° C. for 30 min and then quenched by the addition of 5.2 μL 500 mM EDTA. Each reaction was moved (200 μL) to a MultiScreen HTS PCR plate (Millipore MSSLBPC10) containing 20 μL streptavidin agarose beads (Life Technologies S951) and incubated with shaking for 30 min. A vacuum manifold was used to remove the reaction mixture and the beads were similarly washed 3 times with wash buffer (0.05% SDS, 1 mM EDTA in PBS). The plates were further washed 3 times with 200 μL 50 mM NaOH to denature DNA not covalently linked to the biotin modification. For each denaturation step the plate was incubated with shaking at 25° C. for 5 min and the NaOH was removed by centrifugation at 1000 g for 1 min. The reaction products were eluted from the beads by the addition of 150 μL formamide. The plate was incubated at 25° C. for 10 min and read directly at 635/675 in a SpectraMax i3 plate reader (Molecular Devices). Expression and purification of the recombinant IN in Escherichia coli were performed as previously reported^39, 44 with addition of 10% glycerol to all buffers. Preparation of oligonucleotide substrates has been described.^45 Integrase reactions were performed in 10 μL with 400 nM of recombinant IN, 20 nM of 5′-end [^32P]-labeled oligonucleotide substrate and inhibitors at various concentrations. Solutions of 10% DMSO without inhibitors were used as controls. Reactions were incubated at 37° C. (60 minutes) in buffer containing 50 mM MOPS, pH 7.2, 7.5 mM MgCl2, and 14.3 mM 2-mercaptoethanol. Reactions were stopped by addition of 10 μL of loading dye (10 mM EDTA, 98% deionized formamide, 0.025% xylene cyanol and 0.025% bromophenol blue). Reactions were then subjected to electrophoresis in 20% polyacrylamide-7 M urea gels. Gels were dried and reaction products were visualized and quantitated with a Typhoon 8600 (GE Healthcare, Little Chalfont, Buckinghamshire, UK). Densitometric analyses were performed using ImageQuant from Molecular Dynamics Inc. The concentrations at which enzyme activity was reduced by 50% (IC50) were determined using “Prism” software (GraphPad Software, San Diego, Calif.) for nonlinear regression to fit dose-response data to logistic curve models.

[1] = tested on: HIV-1 clone 1556-1 (Y143C); format: cell-based; settings: EC50(mutant)/EC50(WT)
[2] = tested on: HIV-1 clone 4736-2 (N155H); format: cell-based; settings: EC50(mutant)/EC50(WT)
[3] = tested on: HIV-1 clone 8070-1 (G140S/Y143H/Q148H); format: cell-based; settings: EC50(mutant)/EC50(WT)
[4] = tested on: HIV-1 clone 8070-2 (G140S/Q148H); format: cell-based; settings: EC50(mutant)/EC50(WT)
[5] = Compound cytotoxicity (MTS) in the HIV cytoprotection assay; format: cell-based; settings: human
Protocol: as §1, §2

[6] = Aqueous stability in DPBS; format: physicochemical; settings: DPBS (37° C.) over a 24 h period
Protocol: To assess drug-like properties of chemotype 7, selected analogues were tested in various in vitro ADME studies (Table 5). Aqueous stability and solubility were evaluated in Dulbecco's Phosphate-Buffered Saline (DPBS). […] Assessment of plasma and microsomal stability as well as plasma protein binding was done in two species, human and mouse. […] Microsomal stability of the compounds were evaluated in liver microsomes using either NADPH (phase I) or UDPGA (phase II) as cofactor.

[7] = Human immunodeficiency virus 1, 10 μM, HIV-1IIIB in CEM-SS cells

SMILES | inhibition at 10 µM (HIV-1IIIB; [7]) [%] | Cell viability % (CEM-SS cells) [%] | IC50 (HIV-1 integrase; read-out: INST IC50) [µM] | also measured
CCNc1[nH]c(=O)n(O)c(=O)c1C(=O)NCc1cccc(Cl)c1F [Compound 7-xxiii, N-(3-Chloro-2-fluorobenzyl)-1-(hydroxy)-4-(ethylamino)-1,2,3,6-tetrahydro-2,6-dioxopyrimidine-5-carboxamide] | 100 | 100 | 0.021 ± 0.002 | EC50 (HIV-1IIIB; Human immunodeficiency virus 1): 0.015 µM; CC50 (CEM-SS cells): 18 µM; Fold-resistance [1]: 0.4; Fold-resistance [2]: 2.4; Fold-resistance [3]: 6.3; Fold-resistance [4]: 13
Cc1cn([C@H]2C[C@H](N=[N+]=[N-])[C@@H](CO)O2)c(=O)[nH]c1=O [AZT, reference compound] |  |  |  | EC50 (HIV-1IIIB; Concentration inhibiting virus replication by 50%, dose response, read-out: EC50): 0.08 µM; CC50 (CEM-SS cells): > 10 µM; Fold-resistance [1]: 1.4; Fold-resistance [2]: 0.7; Fold-resistance [3]: 0.9; Fold-resistance [4]: 0.5
CCNc1[nH]c(=O)n(O)c(=O)c1C(=O)NCc1cc(F)ccc1F [Compound 7-xvii, N-(2,5-Difluorobenzyl)-1-(hydroxy)-4-(ethylamino)-1,2,3,6-tetrahydro-2,6-dioxopyrimidine-5-carboxamide] |  | 92 | 0.068 ± 0.011 | inhibition at 10 µM (HIV-1IIIB; Human immunodeficiency virus 1, CEM-SS): 100%; EC50 (HIV-1IIIB; Human immunodeficiency virus 1, Concentration inhibiting virus replication by 50%, dose response, read-out: EC50): 0.032 µM; EC50 (HIV-1IIIB; Human immunodeficiency virus 1, summary of Table 2, read-out: EC50): 0.015 to 0.061 µM; CC50 at 6 days [5]: 47 µM; IC50 (HIV-1 integrase; read-out: IC50 (ST)): 0.021 to 0.077 µM
CCNc1[nH]c(=O)n(O)c(=O)c1C(=O)Nc1ccccc1 [Compound 7-xxv, 1-(Hydroxy)-4-(ethylamino)-1,2,3,6-tetrahydro-2,6-dioxo-N-phenylpyrimidine-5-carboxamide] | 11 | 27 | 35 ± 17 | antiviral activity, in words (HIV-1IIIB; single concentration 10 μM, CPE assay): complete loss of activity
CCCNc1[nH]c(=O)n(O)c(=O)c1C(=O)NCc1ccccc1 [Compound 7-vii, N-Benzyl-1-(hydroxy)-1,2,3,6-tetrahydro-2,6-dioxo-4-(propylamino)pyrimidine-5-carboxamide] | 100 | 97 | 0.066 ± 0.016 | 
CCNc1[nH]c(=O)n(O)c(=O)c1C(=O)NCc1cc(F)ccc1Cl [Compound 7-xxi, N-(2-Chloro-5-fluorobenzyl)-1-(hydroxy)-4-(ethylamino)-1,2,3,6-tetrahydro-2,6-dioxopyrimidine-5-carboxamide] | 62 | 73 | 0.095 ± 0.019 | 
CCNc1[nH]c(=O)n(O)c(=O)c1C(=O)NCc1ccc(Cl)c(F)c1 [Compound 7-xxii, N-(4-Chloro-3-fluorobenzyl)-1-(hydroxy)-4-(ethylamino)-1,2,3,6-tetrahydro-2,6-dioxopyrimidine-5-carboxamide] | 100 | 100 | 0.12 ± 0.021 | EC50 (HIV-1IIIB; Human immunodeficiency virus 1): 0.19 µM; CC50 (CEM-SS cells): 19 µM; remaining in DPBS [6]: 86%
CNc1[nH]c(=O)n(O)c(=O)c1C(=O)NCc1ccc(F)cc1 [Compound 7-xiii, N-(4-Fluorobenzyl)-1-(hydroxy)-1,2,3,6-tetrahydro-4-(methylamino)-2,6-dioxopyrimidine-5-carboxamide] | 100 | 89 | 0.11 ± 0.021 | 
O=C(NCc1ccc(F)cc1)c1c(Nc2ccc(-c3ccccc3)cc2)[nH]c(=O)n(O)c1=O [Compound 7-iv, N-(4-Fluorobenzyl)-1-(hydroxy)-1,2,3,6-tetrahydro-2,6-dioxo-4-(biphenylamino)pyrimidine-5-carboxamide] | 0 | 9.1 | > 100 | 
CCNc1[nH]c(=O)n(O)c(=O)c1C(=O)NCc1ccc(F)cc1F [Compound 7-xviii, N-(2,4-Difluorobenzyl)-1-(hydroxy)-4-(ethylamino)-1,2,3,6-tetrahydro-2,6-dioxopyrimidine-5-carboxamide] | 92 | 87 | 0.048 ± 0.007 | 
CCNc1[nH]c(=O)n(O)c(=O)c1C(=O)NCc1cc(F)cc(F)c1 [Compound 7-xix, N-(3,5-Difluorobenzyl)-1-(hydroxy)-4-(ethylamino)-1,2,3,6-tetrahydro-2,6-dioxopyrimidine-5-carboxamide] | 100 | 100 | 0.23 ± 0.062 | 
CNc1[nH]c(=O)n(O)c(=O)c1C(=O)NCc1cccc(Cl)c1F [Compound 7-xiv, N-(3-Chloro-2-fluorobenzyl)-1-(hydroxy)-1,2,3,6-tetrahydro-4-(methylamino)-2,6-dioxopyrimidine-5-carboxamide] | 100 | 100 | 0.11 ± 0.033 | 
